Experimental findings from article PMC6101487 (2018) are described below.

What all share (assay): fluorescence scan of RNA array
Conditions in all cases: 6 mM MgCl2, 20 mM NaCl; 40 mM Tris pH 7.8, 20 °C, 16 h; 20 μM malachite green

Assay [1] relates to MGsa (malachite green aptamer–streptavidin aptamer conjugate) (RNA, aptamer) GGAUCCCGACUGGCGAGAGCCAGGUAACGAAUGGAUCCACACACACACACACACACACGCAUGCAUACCGACCAGAAUCAUGCAAGUGCGUAAGAUAGUCGCGGGCCGGGAUGCAUGC
For assay [2], the system named is DsrAsa (RNA, other) GGGAACACAUCAGAUUUCCUGGUGUAACGAAUUUUUUAAGUGCUUCUUGCUUAAGCAAGUUUCAUCCCGACCCCCUCAGGGUCGGGAUUUUUUUUUUUUUUUUUUUUUUAGAGACCGACCAGAAUCAUGCAAGUGCGUAAGAUAGUCGCGGGCCGGGCUCUA
Assay [3] relates to RprAsa (RNA, other) GGGACGGUUAUAAAUCAACAUAUUGAUUUAUAAGCAUGGAAAUCCCCUGAGUGAAACAACGAAUUGCUGUGUGUAGUCUUUGCCCAUCUCCCACGAUGGGCUUUUUUUUUUUUUUUUUUUUUUUUUUGUGUGACCGACCAGAAUCAUGCAAGUGCGUAAGAUAGUCGCGGGCCGGGCACAC
Assay [4] has as its system ompAsa (RNA, mRNA element) GGGCCAGGGGUGCUCGGCAUAAGCCGAAGAUAUCGGUAGAGUUAAUAUUGAGCAGAUCCCCCGGUGAAGGAUUUAACCGUGUUAUCUCGUUGGAGAUAUUCAUGGCGUAUUUUGGAUGAUAACGAGGCGCAAAAAAUGAAAAAGACAGCUAUCGCGAUUGCAGUGGCAAAUAAUAAUAAUAAUAAUAAUAUGCAUGCACCGACCAGAAUCAUGCAAGUGCGUAAGAUAGUCGCGGGCCGGGGCAUGCAU
In assay [5] the test system is MicAsa (RNA, other) GGGGAAAGACGCGCAUUUGUUAUCAUCAUCCCUGAAUUCAGAGAUGAAAUUUUGGCCACUCACGAGUGGCCUUUUACACACACACACACACACACGCAUGCAUACCGACCAGAAUCAUGCAAGUGCGUAAGAUAGUCGCGGGCCGGGAUGCAUGC
The subject of assay [6] is rpoSsa (RNA, mRNA element) GGGUUCUGAGUCUUCGGGUGAACAGAGUGCUAACAAAAUGUUGCCGAACAACAAGCCAACUGCGACCACGGUCACAGCGCCUGUAACGGUACCAACAGCAAGCACAACCGAGCCGACUGUCAGCAGUACAUCAACCAGUACGCCUAUCUCCACCUGGACCUGGCCGACUGAGGGCAAAGUGAUCGAAACCUUUGGCGCUUCUGAGGGGGGCAACAAGGGGAUUGAUAUCGCAGGCAGCAAAGGACAGGCAAUUAUCGCGACCGCAGAUGGCCGCGUUGUUUAUGCUGGUAACGCGCUGCGCGGCUACGGUAAUCUGAUUAUCAUCAAACAUAAUGAUGAUUACCUGAGUGCCUACGCCCAUAACGACACAAUGCUGGUCCGGGAACAACAAGAAGUUAAGGCGGGGCAAAAAAUAGCGACCAUGGGUAGCACCGGAACCAGUUCAACACGCUUGCAUUUUGAAAUUCGUUACAAGGGGAAAUCCGUAAACCCGCUGCGUUAUUUGCCGCAGCGAUAAAUCGGCGGAACCAGGCUUUUGCUUGAAUGUUCCGUCAAGGGAUCACGGGUAGGAGCCACCUUAUGAGUCAGAUUUUUUUUUUUUUUUUUUAUGCAUGCACCGACCAGAAUCAUGCAAGUGCGUAAGAUAGUCGCGGGCCGGGGCAUGCAU

Structures are written as SMILES.

As for `CN(C)c1ccc(C(=C2C=CC(=[N+](C)C)C=C2)c2ccccc2)cc1`, the binding entry in assay [1] is “yes”; in assay [2], “no”; in assay [3], “no”; in assay [4], “no”; in assay [5] it was “no”; in assay [6], “no”.
